Measurements published in US4861774A, “Method of treating tumors using tetracyclo compounds” (priority 1984, dated 1989).
Values after ≈ are worked out from the molar mass of the structure shown.

What was measured:
[1] = Existence as mixture or single component by NMR spectra or silica gel TLC with chromatoscanner; assay type: physicochemical
[2] = system: Pseudomonas aeruginosa NCTC-10490; assay: Antimicrobial activity, serial broth dilution (Test 2), Pseudomonas aeruginosa; assay type: cell-based; conditions: NCTC10490, overnight incubation at 37° C.
Procedure: (§1) Antimicrobial activity of the FR-900482 substance against some bacteria was determined by a serial broth dilution method in bouillon media for bacteria. Minimum inhibitory concentrations (MIC) were expressed in terms of μg/ml after overnight incubation at 37° C.

Human LX-1 lung = Human LX-1 lung tumor in nude mice (Test 9); assay type: in vivo, human (in BALB/c nu/nu mice); conditions: 18.0 mg/kg i.v., days 12, 16 & 20; evaluation day 28
Procedure: (§2) Human LX-1 lung or MX-1 mammary (each fragment, 2×2×2 mm), maintained s.c. by serial passage in male BALB/c nu/nu mice, was implanted s.c. to male BALB/c nu/nu mice on day 0, and the test compounds or vehicle were given i.v. to the mice once a day on specified days in Table 9.
(§3) Tumor weight was calculated as follows: (Tumor length and width were measured by caliper.)
(§4) Tumor weight (mg)=1/2×a×b^2, where a represents length and b represents width (mm).
(§5) Tumor weights (initial) and (last) were calculated on the first injection day (just before dosing) and on day 21, 27 or 28 (the last evaluation day), respectively.
(§6) Five mice were used for each test group and 5 or 10 mice were used for each vehicle-treated control group.
(§7) Drug efficacy was expressed as percentage of mean tumor weight of the test group to that of the control group. [formula]

B16 Melanoma = B16 Melanoma in mice (Test 5); assay type: in vivo, mice (BDF1); conditions: 10.0 mg/kg i.p., days 1-9
Procedure: B16 Melanoma (1:10 brei, 0.5 ml), maintained s.c. by serial passage in female C57BL/6 mice, was implanted i.p. to female BDF1 mice on day 0, and the test compounds or vehicle were given i.p. to the mice once a day on days 1-9.
(§8) Ten mice were used for each test group, and twenty mice were used for each vehicle-treated control group.
(§9) Drug efficacy against the ascitic tumors is expressed as percentage of the median (mean) survival time of the test group to that of the control group. [formula] .circle.2 Results

[3] = system: Lymphocytic leukemia P388; assay: Antitumor activity against lymphocytic leukemia P388 in mice (Test 1); assay type: in vivo, mice (BDF1); conditions: for T/C: mean survival time treated/control
Procedure: The antitumor activity of FR-900482 substance was determined in experimental tumor system in mice.
Lymphocytic leukemia P388 was implanted intraperitoneally into BDF1 mice at an inoculum size of 1×10^6 cells per mouse. Twenty-four hours after the implantation of tumor cells, graded doses of the FR-900482 substance were administered to mice intraperitoneally. Treatments were once a day on day 1, 2, 3 and 4 after the tumor inoculation. Control animals received intraperitoneal doses of physiological saline solution. The injection volume was 0.2 ml in all experiments. Six mice were used for each experimental group.
Antitumor activity was evaluated by the mean survival time of a group of mice and also expressed by the T/C % value (mean survival time of treated group/mean survival time of control group, ×100).

L1210 Leukemia = L1210 Leukemia ascitic tumor in mice (Test 5); assay type: in vivo, mice (BDF1 or CDF1); conditions: 10.0 mg/kg i.p., days 1-9, BDF1 mice
Excerpt: L1210 Leukemia (1×10^5 cells), maintained i.p. by serial passage in female DBA/2 mice, was implanted i.p. to female BDF1 or CDF1 mice on day 0, and the test compounds or vehicle were given i.p. to the mice once a day on days 1-9.
as §8, §9

[4] = Acute toxicity in ddY mice (Test 3); conditions: mouse, in vivo
Human MX-1 mammary = Human MX-1 mammary tumor in nude mice (Test 9); assay type: in vivo, human (in BALB/c nu/nu mice); conditions: 10.0 mg/kg i.v., days 11, 15 & 19; evaluation day 27
Procedure: as §2, §3, §4, §5, §6, §7

[5] = system: Bacillus subtilis ATCC 6633; assay: Antimicrobial activity, serial broth dilution (Test 2), Bacillus subtilis; assay type: cell-based; conditions: ATCC6633, overnight incubation at 37° C.
Procedure: as §1

[6] = Mixture ratios of the two components under various pH values; assay type: physicochemical; conditions: pH 1.0, 0.1 N hydrochloric acid
Procedure: The FR-900482 substance was dissolved in various buffer solutions so as to make its concentration to 10 mg/ml. After allowing to stand for 2 hours, 4 μl of each of these solutions was subjected to silica gel thin layer chromatography using a mixture of chloroform and methanol (4:1, v/v) as a developing solvent. After developing, the mixture ratios of the two components were calculated by a chromatoscanner at 254 nm, the results of which are shown in the following.

[7] = system: Escherichia coli NIHJ JC-2; assay: Antimicrobial activity, serial broth dilution (Test 2), Escherichia coli; assay type: cell-based; conditions: NIHJJC2, overnight incubation at 37° C.
Procedure: as §1

[8] = system: Human LC-6-JCK lung carcinoma; assay: Human LC-6-JCK lung carcinoma in nude mice (Test 10); assay type: in vivo, human (in BALB/c nu/nu mice); conditions: 10.0 mg/kg i.v., days 12, 16 and 20; evaluation day 28
Procedure: Human LC-6-JCK lung or SC-6-JCK stomach (each fragment, 2×2×2 mm), maintained s.c. by serial passage in male BALB/c nu/nu mice, was implanted s.c. to male BALB/c nu/nu mice on day 0, and the test compounds were given i.v. to the mice once a day on days 12, 16 and 20.
as §3, §4
Tumor weights (initial) and (last) were calculated on the first injection day (just before dosing) and on day 28 (the last evaluation day), respectively.
Five mice were used for each test group and four or five mice were used for each vehicle-treated control.
as §7

AH130 Hepatoma = assay: in vivo rat ascitic tumor model, AH130 Hepatoma (Test 8); design: species or system rats (Donryu); conditions: 1.0 mg/kg i.p., days 1, 5 and 9; median survival time
Excerpt: AH130 Hepatoma (1×10^6 cells), maintained i.p. by serial passage in female Donryu rats, was implanted i.p. to female Donryu rats on day 0, and the test compounds or vehicle were given i.p. to the rats once a day on days 1, 5 and 9. Ten rats were used for each test group or vehicle-treated control group.
Drug efficacy against the ascitic tumors is expressed as percentage of the median survival time of the test group to that of the control group. [formula]

In the case of `NC(=O)OCC1c2c(O)cc(C=O)cc2N2CC3NC3C1(O)O2` (stereo not shown) [FR-900482 substance, 4-Formyl-6,9-dihydroxy-14-oxa-1,11-diazatetracyclo[7.4.1.0^2,7.0^10,12]tetradeca-2,4,6-trien-8-ylmethyl carbamate], the “existence as mixture or single component” value ([1]; around neutral condition) is reported as “mixture of two components”, the “existence as mixture or single component” value ([1]; around pH 1 condition) is reported as “single component” and the MIC [2] is reported as 25 µg/mL (≈ 77.8 µM). The “1-T"/C"” value (Human LX-1 lung) was 97%, the Solubility (Solubility; acetone) was “Insoluble” and the Solubility (Solubility; chloroform) was “Insoluble”. For the same compound, the Solubility (Solubility; ethyl acetate) was “Insoluble”, the Solubility (Solubility; methanol) was “Soluble” and the Solubility (Solubility; water) was “Soluble”. For the same compound, the T/C (B16 Melanoma) was 350%, the “Mean Survival time” value ([3]; 1.0 mg/kg i.p., days 1-4) was 13.0 days and the T/C ([3]; 1.0 mg/kg i.p., days 1-4) was 118%. The “Mean Survival time” value ([3]; 3.2 mg/kg i.p., days 1-4) was 14.0 days, the T/C ([3]; 3.2 mg/kg i.p., days 1-4) was 127% and the “Mean Survival time” value ([3]; 5.6 mg/kg i.p., days 1-4) was 16.0 days. The T/C ([3]; 5.6 mg/kg i.p., days 1-4) was 145%, the “Mean Survival time” value ([3]; 10 mg/kg i.p., days 1-4) was 24.5 days and the T/C ([3]; 10 mg/kg i.p., days 1-4) was 223%. For the same compound, the “Mean Survival time” value ([3]; 18 mg/kg i.p., days 1-4) was 29.0 days, the T/C ([3]; 18 mg/kg i.p., days 1-4) was 264% and the “increase in life span in mice” value ([3]; doses between 3.2-18 mg/kg i.p.) was “significant increase in life span”. The “activity against the leukemia P388” value ([3]; i.p., days 1-4) was “quite active”, the T/C (L1210 Leukemia) was > 190% and the LD50 ([4]; ip, intraperitoneal injection) was 32 mg/kg. The LD50 ([4]; intravenous injection) was 32 mg/kg, the “1-T"/C"” value (Human MX-1 mammary) was 100% and the MIC [5] was 50 µg/mL (≈ 156 µM). For the same compound, the “Ratios of the two components” value [6] was “single component”, the MIC [7] was 50 µg/mL (≈ 156 µM) and the “1-T"/C"” value [8] was 100%. For the same compound, the T/C (AH130 Hepatoma) was > 429%.
